Measured values reported in patent EP4696306A1, “ADENOSINE TRIPHOSPHATE SECRETION INHIBITOR, HEPATIC STELLATE CELL ACTIVATION INHIBITOR, HEPATIC STELLATE CELL DEACTIVATOR, HEPATIC FIBROSIS THERAPEUTIC AGENT, NON-ALCOHOLIC STEATOHEPATITIS THERAPEUTIC AGENT, PSORIASIS THERAPEUTIC AGENT, AND USE OF COMPOUND FOR PRODUCING ADENOSINE TRIPHOSPHATE …” (KURUME UNIVERSITY, priority 2023, dated 2024).

Legend:
[1] = tested on: imiquimod-induced psoriasis; test: Imiquimod-induced psoriasis model; assay type: in vivo, mice; details: for auricular thickening and psoriatic symptoms: Example 21, N = 2
Description: Experimental psoriatic symptoms were induced in a mouse auricle by imiquimod. Six-week-old male C57BL/6 mice (N = 5) were acclimated for one week. On Days 1 to 7, 62.5 mg of 5% imiquimod cream (Beselna Cream 5%) (3.125 mg in terms of the active ingredient, manufactured by Mochida Pharmaceutical Co. Ltd.) was applied to the right auricle of the mice for 7 consecutive days (IMQ group). Once daily after the imiquimod application, the imeglimin administration group (IMQ + IMG group) received oral administration, at 40 mg/kg, of 500-mg Twymeeg (trademark) tablets (manufactured by Sumitomo Pharma Co. Ltd.) dissolved in physiological saline. The control group received an equal volume of physiological saline. On Day 8, the mice were euthanized by cervical dislocation, and auricle thickness was measured using a dial thickness gauge (manufactured by Adachi Sogyo Co., Ltd.).
Each excised mouse auricle was fixed in 4% paraformaldehyde at 4°C overnight. After ethanol substitution, the auricle was embedded in paraffin, sectioned using a rotary microtome Leica RM2165 (thickness, […]), and subjected to HE staining or immunohistochemical staining. For the immunohistochemical staining, the sections were deparaffinized, washed in xylene, and rehydrated through graded alcohols. The sections were incubated in DAKO at 95°C for 30 minutes. The sections were blocked at room temperature for 60 minutes and then incubated at room temperature for 2 hours to allow reaction with a TGM1 anti-rabbit polyclonal antibody (catalog number 12912-3-AP, manufactured by Proteintech). The sample was washed and then allowed to react with a secondary antibody (Alexa 544-conjugated secondary antibody (goat anti-rabbit IgG) (manufactured by Molecular Probes)) at room temperature for 60 minutes. After allowing reaction with DAPI at room temperature for 10 minutes, the sections were mounted with Fluoromount and imaged using a fluorescence microscope (BZ-X710, manufactured by Keyence).
The dorsal hair of mice was shaved and depilated (Day 0). To each of the left auricle and the depilated back of each mouse, 62.5 mg of 5% imiquimod cream (Beselna Cream 5%) was applied once daily a total of seven times (Days 1 to 7) in accordance with Example 18, to induce imiquimod-induced psoriasis (IMQ group). In the IMQ + IMG group, mice received oral administration of imeglimin (40 mg/kg) once daily (Day 1 to 7) after the imiquimod application. […] Thickness of the auricle was measured, and the degrees of erythema, desquamation, and infiltration in the affected area were rated on Days 1, 3, 5, 7, and 8 according to the PASI scoring of the DermNET Dermatology Resource (none: 0, mild: 1, moderate: 2, severe: 3, and very severe: 4). The resulting values were used to calculate the PASI score.
Further, for an auricle excised on Day 8, immunohistochemical staining was performed in the same manner as in Example 18, and auricular sections were imaged using a fluorescence microscope (BZ-X710; manufactured by Keyence Corporation).
On Days 1, 2, 3, 5, and 6, 62.5 mg of 5% imiquimod cream (Beselna Cream 5%) was applied to auricles of wild-type mice (IMQ) or VNUT knockout mice (VNUT KO + IMQ) to induce psoriatic symptoms. […] For a negative control, only 20% glycerin solution was applied. In IMQ + 1% IMG and IMQ + 0.1% IMG, 20% glycerin solution supplemented with 1% (w/v) imeglimin and 0.1% (w/v) imeglimin, respectively, was applied immediately after the imiquimod application. Further, in IMQ + 1% Clo and IMQ + 0.1% Clo, 20% glycerin solution supplemented with 1% (w/v) clodronate and 0.1% (w/v) clodronate, respectively, was applied immediately after the imiquimod application.

THP-1 cells = test: LPS-stimulated ATP secretion in macrophages differentiated from THP-1 cells; assay type: cell-based, human; details: 10 µM; LPS 10 µg/ml 10 minutes; N = 10
Description: Human acute monocytic leukemia cells (THP-1 cells (ACTT)) were cultured in accordance with Reference D. THP-1 cells were cultured in RPMI1640 medium supplemented with 10% fetal bovine serum (FBS), 100 units/ml penicillin, and 100 µg/ml streptomycin at 37°C in 5% CO2 for 1 day. Further, THP-1 cells were cultured in RPMI1640 medium supplemented with 1 µg/ml Escherichia coli scrotype 055:B5 (manufactured by Sigma-Aldrich) and 1000 units/ml mouse IFN-γ (manufactured by R&D Systems) at 37°C in 5% CO2 for 1 day, to allow differentiation into macrophages.
The differentiated macrophages were cultured in RPMI1640 medium supplemented with 1 mg/ml Escherichia coli scrotype 055:B5 (manufactured by Sigma-Aldrich) and 1000 units/ml mouse IFN-γ (manufactured by R&D Systems) at 2.5 × 10^4 cells/well in a 24-well plate at 37°C in 5% CO2 for 4 days. The medium was replaced with HBSS (manufactured by Gibco) supplemented with imeglimin or clodronate), and then LPS (10 µg/ml) was added thereto, followed by further performing incubation for 10 minutes and then collection of 200 µl of the supernatant. The supernatant was immediately treated on a heat block at 95°C for 10 minutes, and ATP in the supernatant was quantified using an ATP assay kit - Luminescence (manufactured by Dojindo) (N = 10).

Row | Structure (SMILES) | auricular thickening and psoriatic symptoms ([1]; topical 20% glycerin solution with 0.1% (w/v) clodronate) | auricular thickening and psoriatic symptoms ([1]; topical 20% glycerin solution with 1% (w/v) clodronate) | ATP secretion upon LPS stimulation (THP-1 cells) | epidermal desquamation and psoriatic symptoms of the auricle ([1]; Example 18, oral 40 mg/kg once daily, Days 1 to 7 (Twymeeg tablets dissolved in saline), N = 5) | auricle thickening induced by imiquimod ([1]; Example 18, oral 40 mg/kg once daily, Days 1 to 7, N = 5) | typical psoriatic symptoms (auricular thickness, desquamation, infiltration, PASI score), except erythema ([1]; Example 19, imeglimin 40 mg/kg orally once daily Day 1 to 7, N = 5) | effect compared with infliximab ([1]; Example 19, imeglimin 40 mg/kg orally versus infliximab 100 µg/mouse i.v.) | auricular thickening and psoriatic symptoms ([1]; topical 20% glycerin solution with 0.1% (w/v) imeglimin) | auricular thickening and psoriatic symptoms ([1]; topical 20% glycerin solution with 1% (w/v) imeglimin)
1 | O=P(O)(O)C(Cl)(Cl)P(=O)(O)O [clodronate] | the degree of auricular thickening was improved | the degree of auricular thickening was improved | strongly inhibited | – | – | – | – | – | –
2 | C[C@H]1N=C(N(C)C)N=C(N)N1 [imeglimin] | – | – | strongly inhibited | eliminated epidermal desquamation and reduced the psoriatic symptoms | suppressed | reduced | almost equivalent, or imeglimin was more effective | no effect | the degree of auricular thickening was improved
